Patent publication US20040053355A1, “Modular approach to on-line synthesis, drug discovery and biochemical transformations using immobilized enzyme reactors” (priority 2000, published 2004)

Tests used:
[1] = target: T1, dopamine beta-hydroxylase (DBH), non-immobilized (Bos taurus, UniProt P15101); assay: Non-immobilized DBH activity assay, batch incubation with HPLC-fluorescence analysis; type: biochemical, bovine
T1 construct: purchased
T1 sequence (P15101 1-610): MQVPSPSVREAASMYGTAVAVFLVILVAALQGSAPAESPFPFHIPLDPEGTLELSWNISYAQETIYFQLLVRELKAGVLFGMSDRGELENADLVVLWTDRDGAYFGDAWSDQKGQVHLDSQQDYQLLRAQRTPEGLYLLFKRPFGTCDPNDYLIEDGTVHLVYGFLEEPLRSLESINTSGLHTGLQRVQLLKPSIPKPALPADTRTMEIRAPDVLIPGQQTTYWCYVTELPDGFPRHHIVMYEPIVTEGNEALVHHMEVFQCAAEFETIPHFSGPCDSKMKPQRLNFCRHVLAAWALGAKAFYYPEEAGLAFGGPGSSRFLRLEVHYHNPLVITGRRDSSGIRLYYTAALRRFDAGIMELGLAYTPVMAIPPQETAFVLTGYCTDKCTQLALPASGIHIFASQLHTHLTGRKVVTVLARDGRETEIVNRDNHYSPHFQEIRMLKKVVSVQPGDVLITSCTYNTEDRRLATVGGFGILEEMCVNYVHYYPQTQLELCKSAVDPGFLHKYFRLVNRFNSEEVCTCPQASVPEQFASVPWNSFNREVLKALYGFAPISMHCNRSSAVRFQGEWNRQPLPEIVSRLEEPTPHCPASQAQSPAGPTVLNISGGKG
Description: The solutes were quantitated using fluorescence detection with excitation at λ=265 nm and no cut-off filter for emission. A flow rate of 1 ml/min and ambient temperature were used throughout the study.
Enzymatic conversions utilizing DBH require cupric sulphate, catalase, ascorbic acid and sodium fumarate. An off-line extraction method utilizing solid phase extraction cartridges containing a phenylboronic acid stationary phase was developed. The procedure consisted of the following: 1-ml cartridges were conditioned with 2 ml of methanol followed by 2 ml of sodium phosphate buffer (0.1M, pH 8.4). One ml of reaction mixture was added, the cartridge was then washed with 1 ml sodium phosphate buffer (0.1M, pH 8.4) and the substrate and product were eluted using 1 ml of 0.1N HCl. The eluate was directly injected onto the HPLC system.
(§1) The enzyme was assayed as follows: four different solutions were prepared A, B, C and D (final concentration). (A) 500 μL of enzyme solution (10 μg/ml); B: 275 μL sodium acetate buffer (10 mM, pH 5.5), 50 μL cupric sulphate (5 μM); C: 25 μL catalase (5 μg/ml), 50 μL ascorbic acid (10 mM), 50 μl sodium fumarate (10 mM); D: 50 μl substrate (5 mM). Solution B was added to solution A, the resulting solution was mixed for 1 min. Solution C was added and the resulting solution was mixed for an additional minute. The reaction was started with the addition of the substrate (D), after which the reaction solution was incubated for 5 min at 37° C. in a shaking bath. The reaction was stopped by the addition of 100 μl of cold hexane, the resulting mixture was centrifuged at 3000×g for 10 min and the supernatant transferred to the pre-conditioned phenylboronic acid cartridges in order to extract the product formed and the remaining substrate. Extracted samples were directly injected onto the HPLC under either chiral or achiral conditions.

[2] = target: T2, DBH-Glut-P IMER (immobilized dopamine beta-hydroxylase) (Bos taurus, UniProt P15101); assay: On-line DBH-Glut-P immobilized enzyme reactor (DBH-Glut-P IMER) HPLC system; type: biochemical, bovine
T2 construct: purchased
T2 sequence (P15101 1-610): T1 sequence (P15101 1-610)
From the text: DBH immobilized on the IAM or Glut-P stationary phase was packed into a 1 cm×10 mm guard (Regis Technologies). The guard was placed in a holder and the resulting column connected to a chromatographic system. THE DBH-IAM-IMER and the DBH-Glut-P-IMER was washed with sodium acetate buffer [0.1M, pH 5.5] and sodium acetate buffer [0.1M, pH 6.0], respectively. The eluent from both IMERs was collected in order to determine if any of the DBH was being washed off the columns. The Biorad assay was utilized to measure the amount of non-immobilized enzyme. When the columns were not in use they were washed with sodium acetate buffer at the respective pHs and stored at 4° C.
Pumps 2 and 3 on system 2 and 3 were stopped. 100 μl of a substrate/cofactor mixture is loaded into the injector (i) and the valve is switched to the inject position at the same time the witching valve (SV) is switched such that substrate/product are eluted from the DBH-IMERs and concentrated onto the PBA column of system 2.The second pump was started and mobile phase A was pumped through the PBA column at a flow rate of 0.1 ml/min for 30 sec in order to elute, ascorbic acid and any other by-products produced from the reaction. The pump was then switched to mobile phase B with a flow rate of 0.1 ml/min for 2 min and simultaneously SV1 was switched such that unreacted substrate and product formed were concentrated on the analytical columns of System 3. When the specific contact time elapses the SV2 is switched back to the original position and the pump 3 is started.
The enzymatic activity on the DBH-Glut-P was determined by quantification of the amount of product formed with a given substrate. The temperature of the IMER unless otherwise stated was kept at 37° C. with a column heater. Stock solutions of tyramine were prepared in water. […] The kinetic parameters were determined using standard Michaelis-Menten approach. […] The rates of reaction (Vmax) were calculated using […]mol/mg/min. Results are expressed as mean±standard error of the mean (SEM). […]

[3] = target: T3, immobilized DBH (dopamine β-hydroxylase) (Bos taurus, UniProt P15101); assay: Captopril inhibition of immobilized DBH, batch assay (support not specified); type: biochemical, bovine
T3 construct: purchased
T3 sequence (P15101 1-610): T1 sequence (P15101 1-610)
Description: as §1
The effect of captopril on immobilized DBH kinetics is represented in the form of a reciprocal velocity plot versus the reciprocal of the concentration of tyramine. […] The slope and intercept replots were linear (r>0.995).

[4] = target: T4, dopamine beta-hydroxylase (Homo sapiens, UniProt P09172); details: 140 μM captopril; Cu2+ as CuSO4; Palatini et al., 1989; cited from earlier work
T4 sequence (P09172 1-617): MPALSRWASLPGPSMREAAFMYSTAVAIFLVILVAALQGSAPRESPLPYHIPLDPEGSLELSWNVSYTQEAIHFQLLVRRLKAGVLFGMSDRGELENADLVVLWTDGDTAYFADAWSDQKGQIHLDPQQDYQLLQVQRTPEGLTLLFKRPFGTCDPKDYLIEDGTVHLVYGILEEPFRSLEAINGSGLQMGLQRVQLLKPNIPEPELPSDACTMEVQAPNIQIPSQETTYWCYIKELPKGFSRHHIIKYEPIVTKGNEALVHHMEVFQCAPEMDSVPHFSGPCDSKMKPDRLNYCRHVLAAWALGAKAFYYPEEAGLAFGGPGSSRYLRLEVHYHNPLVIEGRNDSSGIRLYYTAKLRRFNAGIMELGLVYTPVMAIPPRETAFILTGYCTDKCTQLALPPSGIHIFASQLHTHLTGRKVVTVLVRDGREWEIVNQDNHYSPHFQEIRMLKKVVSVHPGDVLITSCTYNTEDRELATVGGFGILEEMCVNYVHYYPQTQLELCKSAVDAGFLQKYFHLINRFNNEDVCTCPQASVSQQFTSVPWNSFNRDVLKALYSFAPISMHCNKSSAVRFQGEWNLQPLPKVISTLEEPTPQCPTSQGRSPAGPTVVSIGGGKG

[5] = target: T5, dopamine beta-hydroxylase immobilized onto Glut-P (DBH-Glut-P) (Bos taurus, UniProt P15101); assay: DBH immobilized onto Glut-P stationary phase (DBH-Glut-P, DBH-Glut-P-SP), batch assay; type: biochemical, bovine; details: hydrochloride
T5 construct: purchased
T5 sequence (P15101 1-610): T1 sequence (P15101 1-610)
Description: The enzyme was assayed as follows: four different solutions were prepared A, B, C and D (final concentration). (A) 500 μL of enzyme solution (10 μg/ml); B: 275 μL sodium acetate buffer (10 mM, pH 5.5), 50 μL cupric sulphate (5 μM); C: 25 μL catalase (5 μg/ml), 50 μL ascorbic acid (10 mM), 50 μl sodium fumarate (10 mM); D: 50 μl substrate (5 mM). Solution B was added to solution A, the resulting solution was mixed for 1 min. Solution C was added and the resulting solution was mixed for an additional minute. The reaction was started with the addition of the substrate (D), after which the reaction solution was incubated for 5 min at 37° C. in a shaking bath. […]
The packing material was washed three times with sodium acetate buffer (0.1M, pH 6). […] The enzyme solution (8-10 μg in 1 ml sodium acetate buffer] was added to the packing material, the mixture was vortexed for 2 min and then placed on a shaker/rotator for 6 h at ambient temperature. At the end of 6 h, the suspension was centrifuged, the supernatant decanted and the packing material washed three additional times with the buffer. The amount of residual enzyme was determined utilizing the same procedure as that carried out for the enzyme immobilized onto IAM.

[6] = substrate: NCCc1ccc(O)c(O)c1; assay: purified protein, by the assay type; details: other: non-immobilized DBH; Lineweaver-Burke; 37.0 °C
[7] = substrate: NCCc1ccc(O)cc1; assay: Non-immobilized DBH activity assay, batch incubation with HPLC-fluorescence analysis; type: biochemical, bovine; details: other: non-immobilized DBH; Lineweaver-Burke; 37.0 °C
Description: (§2) Enzymatic conversions utilizing DBH require cupric sulphate, catalase, ascorbic acid and sodium fumarate. […] The procedure consisted of the following: 1-ml cartridges were conditioned with 2 ml of methanol followed by 2 ml of sodium phosphate buffer (0.1M, pH 8.4). One ml of reaction mixture was added, the cartridge was then washed with 1 ml sodium phosphate buffer (0.1M, pH 8.4) and the substrate and product were eluted using 1 ml of 0.1N HCl. The eluate was directly injected onto the HPLC system.

[8] = substrate: O=C1O[C@H]([C@@H](O)CO)C(O)=C1O; assay: as above; type: biochemical, bovine; details: other: non-immobilized DBH; Lineweaver-Burke; 37.0 °C
Description: as §2

[9] = substrate: COc1cc(C(O)CN)ccc1O; assay: Non-immobilized PNMT activity assay, batch incubation with HPLC-fluorescence analysis; type: biochemical, bovine; details: other: non-immobilized PNMT; 37.0 °C
Description: A mobile phase consisting of potassium phosphate buffer (50 mM) adjusted to pH 2.0 with trifluoroacetic acid was utilized to achieve the desired chromatographic separation of the products from the substrates. The solutes were quantitated using fluorescence detection with excitation at λ=266 nm and emission at λ=380 nm. A flow rate of 0.7 ml/min and ambient temperature were used throughout the study.
(§3) The activity of phenylethanolamine N-methyltransferase was assayed as follows: [final concentration] […] The reaction was started by addition of the 50 μL substrate [1 mM]. The reaction medium was incubated for 10 min at 37° C. in a shaking bath. The resulting solution was centrifuged at 3000×g and the supernatant were directly injected onto the HPLC under the above mentioned conditions.

[10] = substrate: COc1cc(C(O)CN)ccc1O; assay: On-line PNMT immobilized enzyme reactor (PNMT-IMER) HPLC system; type: biochemical, bovine; details: other: PNMT-IMER, 0.2 ml/min, contact time 20 min, 37° C., n = 2, pH 8.3
From the text: PNMT immobilized on the Glut-P stationary phase was packed into a lcm×10 mm guard (Regis Technologies). The guard was put into a holder and the column was placed onto the chromatographic system. The PNMT-IMER was washed with phosphate buffer [0.1M, pH 8.3]. The eluent was collected in order to determine if any of the enzyme was being washed off the column. The Biorad assay was utilized to measure the amount of non-immobilized enzyme. When the column was not in use it was washed with phosphate buffer [0.1M, pH 8.3] and stored at 4° C.
The pump on system 2 is stopped. 100 μl of a substrate/cofactor mixture is loaded into the injector (i) and the value is switched to the inject position at the same time the switching valve (SV) is switched such that the substrate/product are eluted from the PNMT-IMER and concentrated onto the analytical columns of System 2 for the specified contact time. […]
The enzymatic activity on the PNMT-IMER was determined by quantification of the amount of product formed with a given substrate. […]
Enzymatic activity was examined carrying out injections of a series of substrate/cofactor mixtures. […] The kinetic parameters were determined by drawing Lineweaver-Burke plots utilizing Microsoft Excel. Results are expressed as mean±standard error of the mean (SEM). […]

[11] = substrate: COc1cc(C(O)CN)ccc1O; assay: PNMT immobilized on Glut-P stationary phase (PNMT-SP), batch assay; type: biochemical, bovine; details: other: PNMT-SP, Table 5; pH 8.3; 37.0 °C
Description: as §3

Question: What does the source list for `C[C@H](CS)C(=O)N1CCC[C@H]1C(=O)O` [Captopril, captopril]?
Answer: inhibition of DBH mediated formation of octopamine from tyramine ([1]; non-immobilized enzyme, concentrations as low as 150 μM): approximately 50%; IC50 ([1]; read-out: IC50 DBH (Non-immobilized)): 150 µM; concentration as low as which the IMER is inhibited ([2]; DBH-Glut-P IMER): 50 µM; IC50 ([2]; on-line injection of substrate/cofactor/inhibitor mixtures, read-out: IC50 DBH-Glut-P IMER): 120 µM; cupric sulphate concentration achieving reversal of the inhibition ([3]; enzyme form not stated): 2.5 µM; type of inhibition with respect to tyramine (reciprocal velocity plot) ([3]; immobilized DBH, tyramine as varied substrate): noncompetitive inhibition; inhibition of DBH mediated formation of octopamine from tyramine ([3]; immobilized enzyme, concentrations as low as 150 μM): approximately 50%; Cu^2+ concentration giving reversal of the inhibition [4]: 1.5 µM

Question: With `Cl.NCCc1ccc(O)cc1` [Tyramine, tyramine hydrochloride] as the molecule, how does the Vmax [5] read?
Answer: 0.112^− μmol/mg/min

B1: dopamine beta-hydroxylase (DBH), non-immobilized (Bos taurus) (protein)
chain: T1 sequence (P15101 1-610)
notes: purchased
Question: For B1, which Km [6] is on record?
Answer: 5030 µM

Question: What about the Km [7] of the same molecule?
Answer: 2850 µM

Question: What about the Km [8] of the same molecule?
Answer: 620 µM

Question: What about the Vmax [8] of the same molecule?
Answer: 0.185 µmol/mg/min

B2: phenylethanolamine N-methyltransferase (PNMT), non-immobilized (Bos taurus) (protein)
chain: MSGTDRSQAAGAVPDSDPGLAAVSSAYQRFEPRAYLRNNYAPPRGDLSCPDGVGPWKLRCLAQTFATGEVSGRTLIDIGSGPTIYQLLSACAHFEDITMTDFLEVNRQELRLWLREEPGAFDWSVYSQHVCLIEGKGESWQEKECQLRARVKRILPIDVHRPQPLGAGGLAPLPADALVSAFCLEAVSPDLASFQRALDHITTLLRPGGHLLLIGALEESWYLAGEARLAVVPVREEEVREALVRTATRCGICARTPMPAHLQTGVDDVKGIFFTRAQKKVGV
Question: Which Km [9] does the source give for B2 here?
Answer: 109 µM

B3: PNMT-IMER (immobilized phenylethanolamine N-methyltransferase) (Bos taurus) (protein)
chain: B2 chain
Question: Which Km [10] does the source give for B3 here?
Answer: 384 µM

B4: PNMT-Glut-P stationary phase (PNMT-SP) (Bos taurus) (protein)
chain: B2 chain
Question: With B4 as the molecule, how does the Km [11] read?
Answer: 152 µM
